Source: PubChem BioAssay AID1259407 (Chemical Carcinogenesis Research Information System (CCRIS), 2018)
Activity calls are given as the source filed them. The rule behind the calls is not given here.

System: CCRIS mutagenicity, Ames/micronucleus/aberration tests
Experiment: CCRIS mutagenicity studies

Measured: mutagenic call

Oc1ccccc1-c1ccccc1
active: Test System: AMES SALMONELLA TYPHIMURIUM, Strain/Indicator: TA1535, Metabolic Activation: NONE, Method: PREINCUBATION active; positive | Test System: CHO/HGPRT, Strain/Indicator: CHO/GIEMSA, Metabolic Activation: NONE, Method: STANDARD PLATE active; positive | Test System: Mouse lymphoma, Strain/Indicator: L5178Y (tk+/tk-), Metabolic Activation: Rat, Liver, S-9, Aroclor 1254, Method: Suspension/plate active; equivocal (previously evaluated positive)
inactive: Test System: AMES SALMONELLA TYPHIMURIUM, Strain/Indicator: TA98, Metabolic Activation: HAMSTER, LIVER, S-9, AROCLOR 1254 (10%), Method: STANDARD PLATE inactive; negative | Test System: AMES SALMONELLA TYPHIMURIUM, Strain/Indicator: TA98, Metabolic Activation: HAMSTER, LIVER, S-9, AROCLOR 1254, Method: PREINCUBATION inactive; negative | Test System: AMES SALMONELLA TYPHIMURIUM, Strain/Indicator: TA98, Metabolic Activation: NONE, Method: HOST-MEDIATED inactive; negative | Test System: AMES SALMONELLA TYPHIMURIUM, Strain/Indicator: TA98, Metabolic Activation: NONE, Method: PREINCUBATION inactive; negative | Test System: AMES SALMONELLA TYPHIMURIUM, Strain/Indicator: TA98, Metabolic Activation: NONE, Method: STANDARD PLATE inactive; negative | Test System: AMES SALMONELLA TYPHIMURIUM, Strain/Indicator: TA98, Metabolic Activation: RAT, LIVER, S-9, AROCLOR 1254 (10%), Method: STANDARD PLATE inactive; negative | Test System: AMES SALMONELLA TYPHIMURIUM, Strain/Indicator: TA98, Metabolic Activation: RAT, LIVER, S-9, AROCLOR 1254, Method: PREINCUBATION inactive; negative | Test System: AMES SALMONELLA TYPHIMURIUM, Strain/Indicator: TA100, Metabolic Activation: HAMSTER, LIVER, S-9, AROCLOR 1254 (10%), Method: STANDARD PLATE inactive; negative | Test System: AMES SALMONELLA TYPHIMURIUM, Strain/Indicator: TA100, Metabolic Activation: HAMSTER, LIVER, S-9, AROCLOR 1254, Method: PREINCUBATION inactive; negative | Test System: AMES SALMONELLA TYPHIMURIUM, Strain/Indicator: TA100, Metabolic Activation: NONE, Method: HOST-MEDIATED inactive; negative | Test System: AMES SALMONELLA TYPHIMURIUM, Strain/Indicator: TA100, Metabolic Activation: NONE, Method: PREINCUBATION inactive; negative | Test System: AMES SALMONELLA TYPHIMURIUM, Strain/Indicator: TA100, Metabolic Activation: NONE, Method: STANDARD PLATE inactive; negative | Test System: AMES SALMONELLA TYPHIMURIUM, Strain/Indicator: TA100, Metabolic Activation: RAT, LIVER, S-9, AROCLOR 1254 (10%), Method: STANDARD PLATE inactive; negative | Test System: AMES SALMONELLA TYPHIMURIUM, Strain/Indicator: TA100, Metabolic Activation: RAT, LIVER, S-9, AROCLOR 1254, Method: PREINCUBATION inactive; negative | Test System: AMES SALMONELLA TYPHIMURIUM, Strain/Indicator: TA1535, Metabolic Activation: HAMSTER, LIVER, S-9, AROCLOR 1254 (10%), Method: STANDARD PLATE inactive; negative | Test System: AMES SALMONELLA TYPHIMURIUM, Strain/Indicator: TA1535, Metabolic Activation: HAMSTER, LIVER, S-9, AROCLOR 1254, Method: PREINCUBATION inactive; negative | Test System: AMES SALMONELLA TYPHIMURIUM, Strain/Indicator: TA1535, Metabolic Activation: NONE, Method: STANDARD PLATE inactive; negative | Test System: AMES SALMONELLA TYPHIMURIUM, Strain/Indicator: TA1535, Metabolic Activation: RAT, LIVER, S-9, AROCLOR 1254 (10%), Method: STANDARD PLATE inactive; negative | Test System: AMES SALMONELLA TYPHIMURIUM, Strain/Indicator: TA1535, Metabolic Activation: RAT, LIVER, S-9, AROCLOR 1254, Method: PREINCUBATION inactive; negative | Test System: AMES SALMONELLA TYPHIMURIUM, Strain/Indicator: TA1537, Metabolic Activation: HAMSTER, LIVER, S-9, AROCLOR 1254 (10%), Method: STANDARD PLATE inactive; negative | Test System: AMES SALMONELLA TYPHIMURIUM, Strain/Indicator: TA1537, Metabolic Activation: HAMSTER, LIVER, S-9, AROCLOR 1254, Method: PREINCUBATION inactive; negative | Test System: AMES SALMONELLA TYPHIMURIUM, Strain/Indicator: TA1537, Metabolic Activation: NONE, Method: PREINCUBATION inactive; negative | Test System: AMES SALMONELLA TYPHIMURIUM, Strain/Indicator: TA1537, Metabolic Activation: NONE, Method: STANDARD PLATE inactive; negative | Test System: AMES SALMONELLA TYPHIMURIUM, Strain/Indicator: TA1537, Metabolic Activation: RAT, LIVER, S-9, AROCLOR 1254 (10%), Method: STANDARD PLATE inactive; negative | Test System: AMES SALMONELLA TYPHIMURIUM, Strain/Indicator: TA1537, Metabolic Activation: RAT, LIVER, S-9, AROCLOR 1254, Method: PREINCUBATION inactive; negative | Test System: AMES SALMONELLA TYPHIMURIUM, Strain/Indicator: TA1538, Metabolic Activation: HAMSTER, LIVER, S-9, AROCLOR 1254 (10%), Method: STANDARD PLATE inactive; negative | Test System: AMES SALMONELLA TYPHIMURIUM, Strain/Indicator: TA1538, Metabolic Activation: NONE, Method: STANDARD PLATE inactive; negative | Test System: AMES SALMONELLA TYPHIMURIUM, Strain/Indicator: TA1538, Metabolic Activation: RAT, LIVER, S-9, AROCLOR 1254 (10%), Method: STANDARD PLATE inactive; negative | Test System: CHO/HGPRT, Strain/Indicator: CHO/GIEMSA, Metabolic Activation: RAT, LIVER, S-9, AROCLOR 1254, Method: STANDARD PLATE inactive; negative | Test System: E. COLI, Strain/Indicator: WP2, Metabolic Activation: NONE, Method: HOST-MEDIATED inactive; negative | Test System: Mouse lymphoma, Strain/Indicator: L5178Y (tk+/tk-), Metabolic Activation: None, Method: Suspension/plate inactive; negative

C1CC[CH]([Sn]([CH]2CCCCC2)[CH]2CCCCC2)CC1
inactive: Test System: UDS HUMAN PERIPHERAL BLOOD LYMPHOCYTES, Strain/Indicator: THY INCORP, Metabolic Activation: NONE, Method: LIQUID SCINTILLATION inactive; negative | Test System: UDS HUMAN PERIPHERAL BLOOD LYMPHOCYTES, Strain/Indicator: THY INCORP, Metabolic Activation: RAT, LIVER, S-9, PHENOBARBITAL AND BETA-NAPHTHOFLAVONE, Method: LIQUID SCINTILLATION inactive; negative

C=CC1(C)OC(=O)N(c2cc(Cl)cc(Cl)c2)C1=O (configuration not stated)
inactive: End Point: IN VITRO MICRONUCLEUS, Test System: HUMAN HEPATOMA CELLS HEPG2, Metabolic Activation: NONE inactive; negative; authors report a slight increase but not statistically significant
